Experimental data: article PMC9669016, “First-in-human phase Ia study of the PI3Kα inhibitor CYH33 in patients with solid tumors” (Nature Communications, 2022)

Tests used:
[1] = test system: fasting blood glucose (FBG); experiment: Pharmacodynamics: fasting blood glucose (FBG) change from baseline; assay type: in vivo, human; settings: Cycle 1 Day 15 (C1D15), starting at 10 mg CYH33 and peaking at 60 mg
Description: Since glucose metabolism is tightly regulated by PI3Kα[24], fasting blood glucose (FBG) levels were used as a PD marker.
This is a phase I clinical study (ClinicalTrials.gov identifier: NCT03544905), including a phase Ia study of oral CYH33 monotherapy in patients with advanced solid tumors, and a phase Ib study of oral CYH33 monotherapy focused on several specific tumors. Here we report the results of the phase Ia study conducted at Sun Yat-sen University Cancer Center. The phase Ia study included dose-escalation stage and dose-expansion stage. […]
Blood samples for PK evaluation were collected at: (1) during the single dose phase: on day 1 pre-dose and 0.5, 1, 2, 4, 8, 12, 24, 36, 48, and 72 h post-dose; (2) during the continuous dose phase: C1D1/Cycle 1 Day 28 pre-dose, and 0.5, 1, 2, 3, 4, 6, 8, 12, and 24 h post-dose; and C1D8/Day 15 pre-dose. Plasma concentrations of CYH33 and I27 were analyzed using a liquid chromatography-tandem mass spectrometry (LC/MS/MS) assay (Shimadzu Corporation, LC-30AD) with a lower limit of quantification (LLOQ) of 2.585 ng/mL and 1.0 ng/mL for CYH33 and I27, respectively. […]

[2] = set-up: method as in Investigator's Brochure (IB) 12; settings: dogs, ref Investigator's Brochure (IB) 12, cited from earlier work

For COC(=O)Nc1cc(C(F)(F)F)c(-c2nc(N3CCOCC3)c3cc(CN4CCN(S(C)(=O)=O)CC4)cn3n2)cn1 [CYH33, methyl (5-(6-((4-(methylsulfonyl)piperazin-1-yl)methyl)−4-morpholinopyrrolo[2,1-f][1,2,4]triazin-2-yl)−4-(trifluoromethyl)pyridin-2-yl)carbamate], the FBG levels [1] is given as “dose-dependent increase in FBG levels”, the absolute bioavailability ([2]; 0.05 mg/kg) is given as 70.9% and the “Vss, steady-state volume of distribution” value [2] is given as 1.86 L/kg. The “accumulation after continuous administration for 7 days” value [2] was “not significant”, the elimination half-life [2] was 5.1 h and the “plasma clearance CL” value [2] was 6.75 mL/min/kg.
